# Where two headings read alike, the source gives them in different places.
# Key:
# [1] = tested on: rat striatal synaptosomes; experiment: Depolarization-evoked glutamate release from striatal synaptosomes; type: cell-based; conditions: for Evoked glutamate release, expressed as the difference in % of the control value: WIN55,212-2 0.1 μM, n = 6
# [2] = biological target: A2AR-CB1R heterotetramer (Homo sapiens, UniProt P21554+P29274)
# [3] = biological target: A2AR-CB1R heteromer (Homo sapiens, UniProt P21554+P29274)
# [4] = biological target: CB1R (Homo sapiens, UniProt P21554); conditions: CP55940 200 nM; cells transfected with CB1R
# [5] = tested on: CB1R; set-up: method as in PMID 16365309, PMID 1331766; conditions: cited from earlier work
# [6] = tested on: CB1R; set-up: method as in PMID 16365309, PMID 1331766; conditions: cited from earlier work; remark: listed apart in the source
# [7] = PTX 10 ng/ml overnight or CTX 100 ng/ml 2 h
# A2AR-CB1R heterotetramer, sequence (P29274 whole entry): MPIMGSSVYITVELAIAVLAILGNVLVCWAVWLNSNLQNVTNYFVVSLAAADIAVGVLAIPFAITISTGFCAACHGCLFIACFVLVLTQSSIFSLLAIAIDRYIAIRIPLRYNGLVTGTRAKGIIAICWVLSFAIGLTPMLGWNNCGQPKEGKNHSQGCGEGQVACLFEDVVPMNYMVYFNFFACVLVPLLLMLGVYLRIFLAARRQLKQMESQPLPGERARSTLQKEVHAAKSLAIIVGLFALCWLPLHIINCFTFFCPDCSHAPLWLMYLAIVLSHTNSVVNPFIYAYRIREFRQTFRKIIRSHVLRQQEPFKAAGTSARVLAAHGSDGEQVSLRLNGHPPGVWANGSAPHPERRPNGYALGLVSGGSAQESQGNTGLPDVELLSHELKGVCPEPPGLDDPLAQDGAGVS
# A2AR-CB1R heterotetramer, sequence (P21554 whole entry): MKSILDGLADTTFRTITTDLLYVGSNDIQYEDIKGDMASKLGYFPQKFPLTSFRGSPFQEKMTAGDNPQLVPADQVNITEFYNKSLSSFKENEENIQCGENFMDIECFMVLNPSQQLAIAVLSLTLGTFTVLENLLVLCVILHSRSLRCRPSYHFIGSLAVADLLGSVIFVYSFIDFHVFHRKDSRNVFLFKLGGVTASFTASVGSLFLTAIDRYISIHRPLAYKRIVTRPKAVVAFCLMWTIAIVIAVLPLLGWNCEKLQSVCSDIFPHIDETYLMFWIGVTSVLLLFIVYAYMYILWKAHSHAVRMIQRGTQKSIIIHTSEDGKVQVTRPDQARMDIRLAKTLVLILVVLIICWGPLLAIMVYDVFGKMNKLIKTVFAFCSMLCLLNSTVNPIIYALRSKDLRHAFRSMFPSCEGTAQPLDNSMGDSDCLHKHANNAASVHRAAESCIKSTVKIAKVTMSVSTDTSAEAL
# A2AR-CB1R heteromer, sequence (P29274 whole entry): as the sequence (P29274 whole entry) above
# A2AR-CB1R heteromer, sequence (P21554 whole entry): as the sequence (P21554 whole entry) above
# CB1R (Homo sapiens, UniProt P21554), sequence (P21554 whole entry): as above
molecule,measurement,setting,value
Nc1nc2c(cnn2CCc2ccccc2)c2nc(-c3ccco3)nn12 [SCH58261],"Effect of co-application on the effect of WIN55,212-2 on glutamate release",[1],did not significantly modify
same,"Effect on the concentration-response inhibitory curve of WIN55,212-2",[1],shifted to the right
same,"Effect on the inhibition of glutamate release by 0.01 and 0.03 μM of WIN55,212-2",[1],fully prevented
same,Effect on evoked glutamate release,[1]; SCH58261 10 μM,significantly inhibited the evoked glutamate release
pertussis toxin [PTX],Effect on CGS21680-induced cAMP increase,[2]; [7],also blocked
same,Effect on CP55940-induced cAMP decrease,[2]; [7],blockade
same,"Effect on WIN55,212-2 (0.1 μM) inhibition of glutamate release","[1]; PTX 2 μg/ml, 4 h at 4 °C",fully prevented this inhibition
CCCCCCC(C)(C)c1ccc([C@@H]2C[C@H](O)CC[C@H]2CCCO)c(O)c1 [CP55940],Effect on CGS21680-mediated increase in cAMP,[2],counteracted CGS21680-mediated increase in cAMP
same,Effect on the concentration-response curve of NECA (Gs activation),"[3]; CP55940 10 μM, Gαs-YFP",did not produce a significant shift
same,Concentration-response curve of ligand-induced changes in BRET: G protein coupling,"[3]; cells co-transfected with either Gαs-, Gαi1- or Gαq-YFP",could only be obtained when the cells were transfected with Gαi-YFP
same,Effect on cAMP formation induced by forskolin (500 nM),[4],decreased cAMP formation
cholera toxin [CTX],Effect on CGS21680-induced cAMP increase,[2],blockade
same,Effect on CP55940-induced cAMP decrease,[2],also blocked
"Cc1c(C(=O)c2cccc3ccccc23)c2cccc3c2n1[C@H](CN1CCOCC1)CO3 [WIN55,212-2]",Potency relative to CP55940 at inhibiting forskolin-induced cAMP production,[5],less potent
same,"Evoked glutamate release, expressed as the difference in % of the control value",[1]; synaptosomes incubated 4 h at 4 °C with PTX (2 μg/ml),114.6% ± 6.8
same,"Evoked glutamate release, expressed as the difference in % of the control value",[1]; toxin-naïve synaptosomes,82.9% ± 3.6
same,Further inhibition of evoked glutamate release in the presence of SCH58261 (10 μM),[1]; WIN55212-2 0.3 μM,could not be further inhibited
same,EC50,"[1]; WIN55,212-2 alone, 30 mM KCl, read-out: EC50 of inhibition of evoked glutamate release",5.5 nM
same,Maximal effect on evoked glutamate release,[1]; at 0.03 μM,77.0 ± 3.0 % of DMSO control
same,Potency relative to CP55940 at eliciting Gq-dependent intracellular calcium increase,[6],more
CCNC(=O)[C@H]1O[C@@H](n2cnc3c(N)nc(NCCc4ccc(CCC(=O)O)cc4)nc32)[C@H](O)[C@@H]1O [CGS21680],"Effect on the inhibition of glutamate release by 0.01 and 0.03 μM of WIN55,212-2",[1]; CGS21680 0.03 μM or SCH58261 0.1 μM,fully prevented
same,"Effect of co-application on the effect of WIN55,212-2 on glutamate release",[1]; CGS21680 0.03 μM plus SCH58261 0.1 μM,did not significantly modify
